Experimental data: patent US20100190710A1, “IL-23 RECEPTOR ANTAGONISTS AND USES THEREOF” (Valorisation HSJ, Societe en Commandite, priority 2007, published 2010)
“Also recorded” adds a separate entry of the source. Peptide text beside a SMILES is read from it.

Key:
IL-12R = target: T1, IL-12R (Homo sapiens, UniProt P42701+Q99665); experiment: IL-12-induced STAT4 phosphorylation (selectivity, Western blot); type: cell-based; settings: even at high concentrations, i.e., 10 μM
T1 construct: endogenous in cells
Procedure: FIGS. 8A and 8B are a series of graphs and Western Blots showing the specificity and selectivity of IL-23R binding peptides. […] [^125I]-2305 binding was performed in phosphate buffer saline pH=7.4 on PMA-activated HL-60 cells. [^125I]-labelled and unlabelled peptide 2305 was incubated with cells for 1 hour for equilibration. Cells were then washed four times and bound radioactivity measured using a Cobra II Autogamma gamma counter (Packard). Non-activated HL-60 cells, which express little IL-23R, were used as a negative control (shown on Western Blot of IL-23 receptor). A robust increase in IL-23R expression by PMA was observed on duplicate Western blots. Peptide 2305 is easily labelled with [^125I] on its tyrosine; in absence of tyrosine (e.g., peptide 2309) [^14C]-labelled amino acids can be used. […] IL-12R is very homologous to IL-23R. Western Blots of phosphorylated STAT4 and total STAT4 were performed on cell lysates.

IL-23R = target: T2, IL-23R (Mus musculus, UniProt Q8K4B4); experiment: IL-23-induced STAT3 phosphorylation in freshly isolated splenocytes (Alpha Screen SureFire p-STAT-3); type: cell-based; settings: freshly isolated splenocytes; listed as APG-2309
T2 construct: Spleens were sterilely removed from mice, sliced, and mashed in the presence of PBS buffer; from tissue; host or cells: mouse spleen: freshly isolated splenocytes, and CD4+ cells differentiated into TH17 cells
T2 sequence (Q8K4B4 24-644): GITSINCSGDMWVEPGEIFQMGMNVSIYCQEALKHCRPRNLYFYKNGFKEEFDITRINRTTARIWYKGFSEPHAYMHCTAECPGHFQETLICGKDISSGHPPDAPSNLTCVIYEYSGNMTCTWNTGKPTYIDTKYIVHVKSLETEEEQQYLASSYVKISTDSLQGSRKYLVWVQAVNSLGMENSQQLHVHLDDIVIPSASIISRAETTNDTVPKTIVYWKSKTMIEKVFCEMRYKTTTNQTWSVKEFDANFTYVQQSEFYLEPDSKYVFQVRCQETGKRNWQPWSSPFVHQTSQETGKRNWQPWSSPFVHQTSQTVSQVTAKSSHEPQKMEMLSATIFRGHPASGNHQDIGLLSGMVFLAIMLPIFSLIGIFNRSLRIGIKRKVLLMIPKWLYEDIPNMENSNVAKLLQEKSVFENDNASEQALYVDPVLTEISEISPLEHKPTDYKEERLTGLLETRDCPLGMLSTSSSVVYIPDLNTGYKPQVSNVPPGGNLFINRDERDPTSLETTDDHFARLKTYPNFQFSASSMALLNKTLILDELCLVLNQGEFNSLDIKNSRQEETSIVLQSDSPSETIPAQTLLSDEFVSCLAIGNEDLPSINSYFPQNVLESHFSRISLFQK
Procedure: Spleens were sterilely removed from mice, sliced, and mashed in the presence of PBS buffer, 2% fetal bovine serum, and 1 mM EDTA. Tissue was allowed to pass through a number 26 syringe and was filtered through a 70 μm mesh nylon strainer. Cells were cultured with non-essential amino acids, 2 μg/ml of anti-CD3, and 20 μg/ml of anti-CD-28 as survival and differentiation factors.
Splenocytes or TH17 cells were distributed in 384-well plates (Optiplate; Perkin Elmer) (100,000 cells/well). Cells were pre-incubated for 30 minutes with different concentrations of peptide APG-2305 or APG-2309 and incubated with 25 ng/ml of IL-23 (R&D systems) for 10 minutes. STAT3 phosphorylation was determined with the kit Alpha Screen SureFire p-STAT-3 assay from Perkin Elmer according to manufacturer's instructions. Briefly, after incubation with IL-23, cells were lysed and contacted with (1) protein A acceptor conjugated beads coated with anti-p-STAT-3 (Tyr705) and (2) streptavidin-coated donor beads. The resulting signal was measured with a Perkin Elmer Wallac En vision 2104 Multilabel reader. Graphs were generated using GraphPrism 4 software.
The effect of peptide APG-2305 and APG-2309 derivatives on IL-23-induced STAT3 phosphorylation was determined using CD-1 mice freshly isolated splenocytes and the Alpha Screen p-STAT3 assay (see above materials and methods) (FIGS. 6 and 7). […] As described herein, based on the efficacy of derivatives, we have identified regions in APG-2305 and APG-2309 peptides that are important for their ability to affect IL-23R activity.

PMA-induced ear edema = experiment: PMA-induced ear edema, enteral (oral) administration; type: in vivo, rats; settings: 20 mg/kg administered orally
Procedure: FIGS. 13A and 13B are graphs showing the effect of peptides APG-2305 (FIG. 13A) and APG-2309 (FIG. 13B) on PMA-induced inflammation. Intraperitoneal administration is abreviated “i.p.” and oral administration is abreviated “p.o.” Peptides APG-2305 and APG-2309 were also given by enteral administration to rats to verify their oral availability. The peptides at various concentrations were injected (twice a day; 200 μl) into the stomach with a gavage needle (Number 20) starting at day 2 of PMA treatment. On day 4 the total peptide dose was given as a bolus and animals were sacrificed 4-6 hours later. […] Scrambled peptide of APG-2305 (5 mg/kg/day) and intraperitoneal APG-2305 served as negative and positive controls respectively. APG-2309 was also injected enterally but inhibit PMA-induced ear edema only slightly at 20 mg/kg administered orally (FIG. 13B). APG-2309 is more hydrophobic than APG-2305.

T1 sequence (Q99665 24-862, other chains not shown): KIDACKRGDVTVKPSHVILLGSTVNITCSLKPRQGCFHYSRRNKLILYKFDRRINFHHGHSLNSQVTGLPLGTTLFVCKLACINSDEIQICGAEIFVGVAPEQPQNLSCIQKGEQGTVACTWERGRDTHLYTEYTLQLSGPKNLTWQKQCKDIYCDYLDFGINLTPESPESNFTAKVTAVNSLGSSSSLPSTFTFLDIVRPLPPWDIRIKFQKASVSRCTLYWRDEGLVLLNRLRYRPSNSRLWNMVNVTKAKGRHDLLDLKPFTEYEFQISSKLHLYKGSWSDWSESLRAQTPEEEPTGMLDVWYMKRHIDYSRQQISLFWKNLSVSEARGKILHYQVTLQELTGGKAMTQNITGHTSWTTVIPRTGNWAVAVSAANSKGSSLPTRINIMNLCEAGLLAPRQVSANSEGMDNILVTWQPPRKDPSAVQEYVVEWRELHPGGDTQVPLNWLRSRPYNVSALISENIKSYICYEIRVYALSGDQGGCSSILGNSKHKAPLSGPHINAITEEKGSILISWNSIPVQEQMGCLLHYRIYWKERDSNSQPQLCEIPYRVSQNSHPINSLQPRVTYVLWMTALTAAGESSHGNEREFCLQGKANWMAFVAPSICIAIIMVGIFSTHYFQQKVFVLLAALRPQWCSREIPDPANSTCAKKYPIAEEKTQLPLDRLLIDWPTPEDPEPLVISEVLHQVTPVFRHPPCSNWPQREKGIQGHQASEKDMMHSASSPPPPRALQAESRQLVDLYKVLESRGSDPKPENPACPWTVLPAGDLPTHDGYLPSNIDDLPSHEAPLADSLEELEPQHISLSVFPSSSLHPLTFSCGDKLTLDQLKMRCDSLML

effect on IL-23-induced STAT3 phosphorylation (IL-23R): inhibit; also recorded: showed efficacy
Compound: CSCC[C@@H](N)C(=O)N[C@H](CCC(=O)O)C(=O)N[C@H](CCC(=O)O)C(=O)N[C@H](CO)C(=O)N[C@H](CCCCN)C(=O)N[C@H](CCC(N)=O)C(=O)N[C@H](CC(C)C)C(=O)N[C@H](CCC(N)=O)C(=O)N[C@H](CC(C)C)C(=O)O [Peptide 2309, MEESKQLQL] (HELM PEPTIDE1{[dM].[dE].[dE].[dS].[dK].[dQ].[dL].[dQ].[dL]}$$$$V2.0; N-terminus and C-terminus assumed)
effect on IL-12-induced STAT4 phosphorylation (IL-12R): does not inhibit; also recorded: inability
PMA-induced ear edema (PMA-induced ear edema): only slightly
